In patent publication US12134610B2, “Somatostatin subtype-2 receptor (SST2R) targeted therapeutics and uses thereof” (priority 2022, dated 2024):
Read-outs that look alike come from different tables or passages of the source. Starred links: 1 amine or outer side, 2 acyl side, 3 side chain; linkers in the order of their positions; H or OH if unused. Non-standard residues stand in square brackets, D forms with d. Residues, ends and D or L forms follow the SMILES beside them. *: point of attachment. PABC(3-O-βDGlc) = O=C(OCc1ccc(N[*:1])c(O[C@@H]2O[C@H](CO)[C@@H](O)[C@H](O)[C@H]2O)c1)[*:2]; X1 = Cc1cc(F)cc(-c2cnc(NCCNC(=O)CCOCCC(=O)*)c(-c3nc4ccc(Cl)cc4[nH]3)c2N2CCC(N)CC2)c1; Dolaproine = CO[C@@H]([C@@H]1CCCN1)[C@@H](C)C(=O)O; Dil = CC[C@H](C)[C@H](NC)[C@@H](CC(=O)O)OC; X2 = C[C@@H](N*)[C@@H](O)c1ccccc1; Cit = NC(=O)NCCC[C@H](N)C(=O)O; NMeV = CN[C@H](C(=O)O)C(C)C

Columns and labels:
Type in all cases: cell-based
[1] = system: NCI-H524 (ATCC) human small cell lung cancer cells
Method: SMDCs of the present invention were assessed in an in vitro assay evaluating the inhibition of cell proliferation. NCI-H524 (ATCC) human small cell lung cancer cells were plated in 96-well V-bottom plates (Costar) at a concentration of 5,000 cells/well. 24 h later, the cells were treated for 2 h with a SMDC. SMDC starting dose was 1 uM and two-fold serial dilutions were done for a total of 11 points. After 2 h of treatment, cells were spun down, and the drug-containing media was removed, and fresh complete media was added and used to resuspend the cells, which were spun again. After removal of the media, the cells were resuspended in complete medium and incubated for an additional 70 h. Cell proliferation was assessed using the CellTiter Glo Assay according to the standard protocol (Promega). Luminescence was measured using a TECAN plate reader. Percent proliferation inhibition was calculated using the following formula: % inhibition=(Luminescence Control−Luminescence Treatment)/Luminescence Control*100. IC50 curves were generated using the nonlinear regression analysis (four-parameter) with GraphPad Prism 9.

[2] = target: T1, human somatostatin receptor subtype 2 (Homo sapiens, UniProt P30874); test: Functional cAMP assay for SSTR2 agonists (HTRF) in CHO-K1 cells; conditions: CHO-K1 cells stably expressing human SST2, 20 min
T1 construct: expressed in transfected cells
Source text: General overview: All five SSTR subtypes are Gi coupled G-protein coupled receptors (GPCRs) that lead to decreases in intracellular cyclic AMP (cAMP) when activated by an agonist. Therefore, measurement of intracellular cAMP levels can be used to assess whether compounds of the invention are agonists of SSTR subtypes (John Kelly, Troy Stevens, W. Joseph Thompson, and Roland Seifert, Current Protocols in Pharmacology, 2005, 2.2.1-2.2). One example of an intracellular cAMP assay is described below.
Functional Assay for SSTR2 Agonists
Four days prior to the assay, 2,000 Chinese hamster ovary cells (CHO-K1, ATCC #CCL-61) stably expressing the human somatostatin receptor subtype 2 are plated in each well of a 96-well tissue culture-treated plate in Ham's F12 growth media (ThermoFisher #10-080-CM) supplemented with 10% donor bovine serum (Gemini Bio-Products #100-506), 100 U/mL penicillin; 100 ug/mL streptomycin; 2 mM L-glutamine (Gemini Bio-Products #400-110) and 0.2 mg/mL hygromycin B (GoldBio #31282-04-9). The cells are cultured at 37° C., 5% CO2 and 95% humidity. cAMP is measured with HTRF dynamic cAMP assay (Cisbio, #62AM5PEJ) per manufacturer's instructions. On the day of the assay, the media is aspirated and the cells are treated with 50 μL of stimulation buffer supplemented with 10.2 mM 3-Isobutyl-1-methylxanthine (IBMX, Millipore Sigma #15879) and 1.6 μM NKH477 (Tocris #1603), plus various dilutions of SMDCs of the present invention. The cells are incubated for 20 minutes at 37° C. (the final concentration of the compounds of the invention are typically 0-10,000 nM). The cells are treated with 50 μL of lysis buffer (HRTF cAMP kit, Cisbio) and incubated at room temperature for 30 minutes with rotary shaking at 600 rpm, and then diluted with 150 μL of stimulation buffer and shaken for an additional five minutes at 300 rpm. The lysate is transferred to 384-well plates and incubated for 1-24 hours at room temperature, and cAMP accumulation is detected by d2-labeled cAMP and Anti-cAMP-Cryptate. The time-resolved fluorescent signal is read using a m1000 Pro (Tecan) or CLARIOStar (BMG Labtech) microplate reader, where the samples are excited with light at 340 nm and emission light is measured at 620 nm and 665 nm. The data is expressed as a calculation of the fluorescence ratio (665 nm/620 nm). The intracellular cAMP concentrations are calculated by regression to a standard curve and are plotted vs. the concentration of the compounds of the invention. The EC50 of the compounds are calculated using standard methods. All data manipulations are in GraphPad Prism v9 (GraphPad, San Diego, CA).

[3] = target: T2, SST2 (Homo sapiens, UniProt P30874); test: PathHunter CHO-K1 SST2 internalization assay; conditions: PathHunter CHO-K1 SST2, 90 min
T2 construct: host or cells: PathHunter CHO-K1 SST2 cells
Method: SMDCs of the present invention were assessed in vitro using the human PathHunter CHO-K1 SST2 β-arrestin2 and PathHunter CHO-K1 SST2 Internalization Assays from DiscoverX. The CHO-K cells were seeded in 20 μLs of cell culture medium in a white-walled 384 well tissue culture-compatible plate at a density of 2500 cells/well. After a 48-hour incubation, cells were treated with 5 μLs of a 1:3 serially diluted SST2 SMDC prepared at 5× concentration with a final top compound concentration of 10 uM for 90 min at 37 C and in 5% CO2. 11 dilutions were tested as well as one treatment that was compound free. After incubation, the media containing treatments were discarded and 20 μL of a working solution of Beta-Glo from Promega Beta-Glo Assay System was added to each well. The plate was then incubated for 60 min at room temperature in the dark. Luminescence was measured using a Tecan plate reader. IC50 curves were generated using the nonlinear regression analysis (four-parameters) with GraphPad Prism 9. Results were the average of duplicates and are corrected for background.

T2 sequence (P30874 whole entry): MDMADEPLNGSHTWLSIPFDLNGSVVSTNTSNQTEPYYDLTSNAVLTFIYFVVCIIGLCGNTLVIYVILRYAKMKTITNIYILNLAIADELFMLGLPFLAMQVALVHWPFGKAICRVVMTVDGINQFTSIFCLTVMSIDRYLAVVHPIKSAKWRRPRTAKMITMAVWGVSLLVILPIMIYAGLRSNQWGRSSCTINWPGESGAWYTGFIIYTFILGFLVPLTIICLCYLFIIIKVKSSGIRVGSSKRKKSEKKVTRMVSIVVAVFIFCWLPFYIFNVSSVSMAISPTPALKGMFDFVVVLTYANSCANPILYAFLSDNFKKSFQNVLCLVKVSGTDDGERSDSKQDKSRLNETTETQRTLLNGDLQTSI
T1 sequence (P30874 whole entry): as above

Compound	EC50 ([1]; 2 h) [nM]	EC50 ([2]; read-out: hSST2 cAMP Avg EC50) [nM]	EC50 ([3]; read-out: Internalization EC50) [nM]	EC50 ([1]; 2 h treatment, washout, additional 70 h, read-out: H524 EC50) [nM]	EC50 ([2]; hSST2 cAMP Avg EC50 (nM)) [nM]	EC50 ([3]; Internalization EC50 (nM)) [nM]
COc1cc2cc(c1Cl)N(C)C(=O)CC(OC(=O)[C@@H](C)N(C)C(=O)CCSSCCOCCOCCOCCOCCC(=O)NCCNc1ncc(-c3cc(C)cc(F)c3)c(N3CCC(N)CC3)c1-c1nc3ccc(Cl)cc3[nH]1)[C@]1(C)OC1[C@@H](C)C1C[C@@](O)(NC(=O)O1)[C@H](OC)/C=C/C=C(\C)C2 (stereo partly drawn) [Compound 21]	22.4	0.41	17.2	–	–	–
CC[C@H](C)[C@@H]([C@@H](CC(=O)N1CCC[C@H]1[C@H](OC)[C@@H](C)C(=O)N[C@H](C)[C@@H](O)c1ccccc1)OC)N(C)C(=O)[C@@H](NC(=O)[C@H](C(C)C)N(C)C(=O)OCc1ccc(NC(=O)[C@H](CCCNC(N)=O)NC(=O)[C@@H](NC(=O)CCOCCC(=O)NCCNc2ncc(-c3cc(C)cc(F)c3)c(N3CCC(N)CC3)c2-c2nc3ccc(Cl)cc3[nH]2)C(C)C)c(O[C@@H]2O[C@H](C(=O)O)[C@@H](O)[C@H](O)[C@H]2O)c1)C(C)C [Compound 132]	22	0.2	5.7	–	–	–
CC[C@H](C)[C@@H]([C@@H](CC(=O)N1CCC[C@H]1[C@H](OC)[C@@H](C)C(=O)N[C@H](C)[C@@H](O)c1ccccc1)OC)N(C)C(=O)[C@@H](NC(=O)[C@H](C(C)C)N(C)C(=O)OCc1ccc(NC(=O)[C@H](CCCNC(N)=O)NC(=O)[C@@H](NC(=O)[C@H](CCC(N)=O)NC(=O)CCOCCC(=O)NCCNc2ncc(-c3cc(C)cc(F)c3)c(N3CCC(N)CC3)c2-c2nc3ccc(Cl)cc3[nH]2)C(C)C)c(O[C@@H]2O[C@H](CO)[C@@H](O)[C@H](O)[C@H]2O)c1)C(C)C [Compound 136] (X1-QV[Cit][PABC(3-O-βDGlc)][NMeV]V[Dil][Dolaproine]-X2)	5.8	0.23	6.7	–	–	–
CC[C@H](C)[C@@H]([C@@H](CC(=O)N1CCC[C@H]1[C@H](OC)[C@@H](C)C(=O)N[C@H](C)[C@@H](O)c1ccccc1)OC)N(C)C(=O)[C@@H](NC(=O)[C@H](C(C)C)N(C)C(=O)OCc1ccc(NC(=O)[C@H](CCCNC(N)=O)NC(=O)[C@@H](NC(=O)[C@H](CCC(=O)O)NC(=O)CCOCCC(=O)NCCNc2ncc(-c3cc(C)cc(F)c3)c(N3CCC(N)CC3)c2-c2nc3ccc(Cl)cc3[nH]2)C(C)C)c(O[C@@H]2O[C@H](CO)[C@@H](O)[C@H](O)[C@H]2O)c1)C(C)C [Compound 135] (X1-EV[Cit][PABC(3-O-βDGlc)][NMeV]V[Dil][Dolaproine]-X2)	38	0.15	2.8	–	–	–
CC[C@@]1(O)C(=O)OCc2c1cc1n(c2=O)Cc2c-1nc1cc(F)c(C)c3c1c2[C@@H](NC(=O)OCc1ccc(NC(=O)[C@H](CCCNC(N)=O)NC(=O)[C@@H](NC(=O)CCOCCC(=O)NCCNc2ncc(-c4cc(C)cc(F)c4)c(N4CCC(N)CC4)c2-c2nc4ccc(Cl)cc4[nH]2)C(C)C)cc1)CC3 [Compound 88]	–	–	–	55	0.3	1.3
COc1cc2cc(c1Cl)N(C)C(=O)CC(OC(=O)[C@@H](C)N(C)C(=O)CCSSCCC(=O)NCCNc1ncc(-c3cc(C)cc(F)c3)c(N3CCC(N)CC3)c1-c1nc3ccc(C(N)=O)cc3[nH]1)[C@]1(C)OC1[C@@H](C)C1C[C@@](O)(NC(=O)O1)[C@H](OC)/C=C/C=C(\C)C2 (stereo partly drawn) [Compound 23, (16E,18E)-11-chloro-21-hydroxy-12,20-dimethoxy-2,5,9,16-tetramethyl-8,23-dioxo-4,24-dioxa-9,22-diazatetracyclo[19.3.1.1^10,^14.0^3,^5]hexacosa-10,12,14(26),16,18-pentaen-6-yl 2-[3-({2-[(2-{[4-(4-aminopiperidin-1-yl)-3-(6-carbamoyl-1H-1,3-benzodiazol-2-yl)-5-(3-fluoro-5-methylphenyl)pyridin-2-yl]amino}ethyl)carbamoyl]ethyl}disulfanyl)-N-methylpropanamido]propanoate]	132	0.66	245	–	–	–
CC[C@H](C)[C@@H]([C@@H](CC(=O)N1CCC[C@H]1[C@H](OC)[C@@H](C)C(=O)N[C@H](C)[C@@H](O)c1ccccc1)OC)N(C)C(=O)[C@@H](NC(=O)[C@H](C(C)C)N(C)C(=O)OCc1ccc(NC(=O)[C@H](CCCNC(N)=O)NC(=O)[C@@H](NC(=O)CCOCCOCCOCCC(=O)NCCNc2ncc(-c3cc(C)cc(F)c3)c(N3CCC(N)CC3)c2-c2nc3ccc(Cl)cc3[nH]2)C(C)C)c(O[C@@H]2O[C@H](C(=O)O)[C@@H](O)[C@H](O)[C@H]2O)c1)C(C)C [Compound 138]	12	0.16	5.2	–	–	–
CC[C@H](C)[C@@H]([C@@H](CC(=O)N1CCC[C@H]1[C@H](OC)[C@@H](C)C(=O)N[C@H](C)[C@@H](O)c1ccccc1)OC)N(C)C(=O)[C@@H](NC(=O)[C@H](C(C)C)N(C)C(=O)OCc1ccc(NC(=O)[C@H](CCCNC(N)=O)NC(=O)[C@@H](NC(=O)CCOCCNCCNc2ncc(-c3cc(C)cc(F)c3)c(N3CCC(N)CC3)c2-c2nc3ccc(Cl)cc3[nH]2)C(C)C)c(O[C@@H]2O[C@H](C(=O)O)[C@@H](O)[C@H](O)[C@H]2O)c1)C(C)C [Compound 128]	31	0.18	8.7	–	–	–
CC[C@H](C)[C@@H]([C@@H](CC(=O)N1CCC[C@H]1[C@H](OC)[C@@H](C)C(=O)N[C@H](C)[C@@H](O)c1ccccc1)OC)N(C)C(=O)[C@@H](NC(=O)[C@H](C(C)C)N(C)C(=O)OCc1ccc(NC(=O)[C@H](C)NC(=O)[C@@H](NC(=O)CCOCCNCCNc2ncc(-c3cc(C)cc(F)c3)c(N3CCC(N)CC3)c2-c2nc3ccc(Cl)cc3[nH]2)C(C)C)c(O[C@@H]2O[C@H](C(=O)O)[C@@H](O)[C@H](O)[C@H]2O)c1)C(C)C [Compound 130]	140	0.29	25	–	–	–
CC[C@H](C)[C@@H]([C@@H](CC(=O)N1CCC[C@H]1[C@H](OC)[C@@H](C)C(=O)N[C@H](C)[C@@H](O)c1ccccc1)OC)N(C)C(=O)[C@@H](NC(=O)[C@H](C(C)C)N(C)C(=O)OCc1ccc(NC(=O)[C@H](CCCNC(N)=O)NC(=O)[C@@H](NC(=O)CCOCCOCCOCCOCCC(=O)NCCNc2ncc(-c3cc(C)cc(F)c3)c(N3CCC(N)CC3)c2-c2nc3ccc(Cl)cc3[nH]2)C(C)C)cc1C(=O)NCCN)C(C)C [Compound 50]	5.8	0.15	7.7	–	–	–
